Data on 20 compounds can be found in patent US5795887A, “Method of inducing cholecystokinin agonist activity using 1,4- Benzodiazepine compounds” (Glaxo Wellcome Inc., priority 1994, dated 1998).

This test has as its system isolated guinea pig gallbladder. Nature of the test: Isolated guinea pig gallbladder assay (contraction, % CCK-induced maximal response). The following applies: Cavia porcellus, Table 1; for % contraction at 30 µM: read-out: % Contraction (30 μM), expressed as % CCK-induced maximal response; for % contraction at 1 µM: read-out: % Contraction (1 μM), expressed as % CCK-induced maximal response. How it is done: 3. GUINEA PIG GALL BLADDER ASSAY
Gallbladders are removed from guinea pigs sacrificed by cervical dislocation. The isolated gallbladders are cleaned of adherent connective tissue and cut into two rings from each animal (2-6 mm in length). […] Tissues are connected via gold chains and stainless steel mounting wires to isometric force displacement transducers (Grass, Model FT03 D). Responses are then recorded on a polygraph (Grass, Model 7E).
Rings are gradually stretched (over a 120 min. period) to a basal resting tension of 1 gm which is maintained throughout the experiment. During the basal tension adjustment period, the rings are exposed to acetylcholine (10^-6 M) four times to verify tissue contractility. The tissues are then exposed to a submaximal dose of sulfated CCK-8 (Sigma, 3×10^-9 M). After obtaining a stable response, the tissues are washed out 3 times rapidly and every 5 to 10 minutes for 1 hour to reestablish a stable baseline.
As a final test, ACH (10 μM) is added to induce maximal contraction.

Take `CC(C)N(C(=O)CN1C(=O)C(NC(=O)Nc2cccc(-c3nn[nH]n3)c2)N=C(c2ccccc2)c2ccccc21)c1ccccc1` (centres unmarked) [Example 1, 1N-Isopropyl-2-(2-oxo-5-phenyl-3-{3-[3-(1H-tetrazol-5-yl)-phenyl]-ureido}-2,3-dihydro-benzo[e][1,4]diazepin-1-yl)-N-phenyl-acetamide]: the % contraction at 30 µM was found to be 63%.
Turning to `CC1=NC(NC(=O)Nc2ccccc2)C(=O)N(CC(=O)N(c2ccccc2)C(C)C)c2ccccc21` (centres unmarked) [Example 2, N-Isopropyl-2-[5-methyl-2-oxo-3-(3-phenyl-ureido)-2,3-dihydro-benzo[e][1,4]diazepin-1-yl]-N-phenyl-acetamide], the % contraction at 30 µM was 88%.
Take `CC(C)N(C(=O)CN1C(=O)C(NC(=O)Nc2ccccc2)N=C(c2ccccc2)c2ccccc21)c1ccccc1` (centres unmarked) [Example 3]: the % contraction at 30 µM amounted to 38%.
For `CC1=NC(NC(=O)Nc2cccc3cn[nH]c23)C(=O)N(CC(=O)N(c2ccccc2)C(C)C)c2ccccc21` (centres unmarked) [Example 4], the % contraction at 1 µM is 23% and the % contraction at 30 µM is 59%.
On to `CC(C)N(C(=O)CN1C(=O)C(NC(=O)Nc2cccc(C(=O)O)c2)N=C(c2ccccc2)c2ccccc21)c1ccccc1` (centres unmarked) [Example 5, 3-{3-[1-(Isopropyl-phenyl-carbamoylmethyl)-2-oxo-5-phenyl-2,3-dihydro-1H-benzo[e][1,4]diazepin-3-yl]-ureido}-benzoic acid], for which the % contraction at 30 µM worked out at 82%.
Turning to `CC(C)N(C(=O)CN1C(=O)C(NC(=O)c2ccc(Cl)cc2N)N=C(c2ccccc2)c2ccccc21)c1ccccc1` (centres unmarked) [Example 6, 2-Amino-4-chloro-N-[1-(isopropyl-phenyl-carbamoylmethyl)-5-phenyl-2-oxo-5-phenyl-2,3-dihydro-1H-benzo[e][1,4]diazepin-3-yl]-benzamide], the % contraction at 1 µM is 41%.
As to `CC1=NC(NC(=O)Nc2cccc(C(=O)O)c2)C(=O)N(CC(=O)N(c2ccccc2)C(C)C)c2ccccc21` (centres unmarked) [Example 7, 3-{3-[1-(Isopropyl-phenyl-carbamoylmethyl)-5-methyl-2-oxo-2,3-dihydro-1H-benzo[e][1,4]diazepin-3-yl]-ureido}-benzoic acid], the % contraction at 1 µM is 16% and the % contraction at 30 µM came out at 61%.
The corresponding values for `COc1ccc(N(C(=O)CN2C(=O)C(NC(=O)Nc3cccc(C(=O)O)c3)N=C(c3ccccc3)c3ccccc32)C(C)C)cc1` (centres unmarked) [Example 8, 3-(3-{1-[Isopropyl-(4-methoxy-phenyl)-carbamoylmethyl]-2-oxo-5-phenyl-2,3-dihydro-1H-benzo[e][1,4]diazepin-3yl}-ureido)-benzoic acid] are 59% and 86%.
For `CC(C)N(C(=O)CN1C(=O)C(NC(=O)Nc2cccc(C(=O)O)c2)N=C(c2ccccc2)c2ccccc21)c1ccc(N(C)C)cc1` (centres unmarked) [Example 9, 3-(3-{1-[(4-Dimethylamino-phenyl)-isopropyl-carbamoylmethyl]-2-oxo-5-phenyl-2,3-dihydro-1H-benzo[e][1,4]diazepin-3-yl}-ureido)-benzoic acid], the % contraction at 1 µM was 73% and the % contraction at 30 µM was 62%.
Consider `COc1ccc(N(C(=O)CN2C(=O)C(CC(=O)Nc3cccc(C(=O)O)c3)N=C(c3ccccc3)c3ccccc32)C(C)C)cc1` (centres unmarked) [Example 10, 3-(2-{1-[Isopropyl-(4-methoxy-phenyl)-carbamoylmethyl]-2-oxo-5-phenyl-2,3-dihydro-1H-benzo[e][1,4]diazepin-3-yl}-acetyl-amino)-benzoic acid], for which the % contraction at 1 µM amounted to 54%.
With `COc1ccc(N(C(=O)CN2C(=O)C(CC(=O)Nc3ccccc3)N=C(c3ccccc3)c3ccccc32)C(C)C)cc1` (centres unmarked) [Example 11, 2-{1-[Isopropyl-(4-methoxy-phenyl)-carbamoylmethyl]-2-oxo-5-phenyl-2,3-dihydro-1H-benzo[e][1,4]diazepin-3-yl}N-phenyl-acetamide], the % contraction at 1 µM amounted to 56% and the % contraction at 30 µM stood at 43%.
As for `CC(C)N(C(=O)CN1C(=O)[C@@H](NC(=O)Nc2cccc(C(=O)O)c2)N=C(c2ccccc2)c2ccccc21)c1ccccc1` [Example 12, (S)-3-{3-[1-(Isopropyl-phenyl-carbamoylmethyl)-2-oxo-5-phenyl-2,3-dihydro-1H-benzo[e][1,4]diazepin-3-yl]-ureido}-benzoic acid], the % contraction at 30 µM was 80%.
Consider `CC(C)N(C(=O)CN1C(=O)[C@H](NC(=O)Nc2cccc(C(=O)O)c2)N=C(c2ccccc2)c2ccccc21)c1ccccc1` [Example 13, (R)-3-{3-[1-(Isopropyl-phenyl-carbamoylmethyl)-2-oxo-5-phenyl-2,3-dihydro-1H-benzo[e][1,4]diazepin-3-yl]-ureido}-benzoic acid], for which the % contraction at 30 µM is 77%.
As to `CC(C)N(C(=O)CN1C(=O)C(NC(=O)c2cc3ccccc3[nH]2)N=C(c2ccccc2)c2ccccc21)c1ccccc1` (centres unmarked) [Example 14, 1H-indolyl-2-carboxylic acid [1-(isopropyl-phenyl-carbamoylmethyl)-2-oxo-5-phenyl-2,3-dihydro-1H-benzo[e][1,4]diazepin-3-yl]-amide], the % contraction at 30 µM stood at 13%.
On the same count and under the same terms, under `CC(C)N(C(=O)CN1C(=O)C(NC(=O)c2cc3ccccc3n2CC(=O)O)N=C(c2ccccc2)c2ccccc21)c1ccccc1` (centres unmarked) [Example 15, {2-[1-(Isopropyl-phenyl-carbamoylmethyl)-2-oxo-5-phenyl-2,3-dihydro-1H-benzo[e][1,4]diazepin-3-ylcarbamoyl]-indol-1-yl}-acetic acid] stands 52%; under `CC(C)N(C(=O)CN1C(=O)C(NC(=O)Nc2ccccc2)[N+]([O-])=C(c2ccccc2)c2ccccc21)c1ccccc1` (centres unmarked) [Example 16, N-Isopropyl-2-[4-N-oxide-2-oxo-5-phenyl-3-(3-phenyl-ureido)-2,3-dihydro-benzo[e][1,4]diazepin-1-yl]-N-phenyl-acetamide], 67%.
On to `COc1ccc(N(C(=O)CN2C(=O)C(Cc3c[nH]c4ccccc34)N=C(c3ccccc3)c3ccccc32)C(C)C)cc1` (centres unmarked) [Example 17, 3-{1-[Isopropyl-(4-methoxy-phenyl)-carbamoylmethyl]-2-oxo-5-phenyl-2,3-dihydro-1H-benzo[e][1,4]diazepin-3-ylmethyl}-indolyl], for which the % contraction at 1 µM stood at 24%.
Still for that read-out and setting: under `COc1ccc(N(C(=O)CN2C(=O)C(NC(=O)Nc3ccccc3)N=C(c3cccnc3)c3ccccc32)C(C)C)cc1` (centres unmarked) [Example 18, N-Isopropyl-N-(4-methoxy-phenyl)-2-[2-oxo-3-(3-phenyl-ureido)-5-pyridin-3-yl-2,3-dihydro-benzo[e][1,4]diazepin-1-yl]-acetamide] stands 75%.
For `CC(C)N(C(=O)CN1C(=O)C(NC(=O)Nc2ccccc2)n2cnnc2-c2ccccc21)c1ccccc1` (centres unmarked) [Example 19, N-Isopropyl-N-phenyl-2-[5-oxo-4-(3-phenyl-ureido)-4,5-dihydro-1,2,3a,6-tetraaza-benzo[e]azulen-6-yl]-acetamide], the % contraction at 1 µM is 83% and the % contraction at 30 µM is 58%.
As to `COc1ccc(N(C(=O)CN2C(=O)[C@@H](Cc3c[nH]c4ccccc34)NC(=O)c3ccccc32)C(C)C)cc1` [Example 20, (R)-2-[3-(1H-Indol-3-ylmethyl)-2,5-dioxo-2,3,4,5-tetrahydro-benzo[e][1,4]diazepin-1-yl]-N-isopropyl-N-(4-methyoxy-phenyl)-acetamide], the % contraction at 1 µM amounted to 31%.
